Experimental data: ChEMBL document CHEMBL1151253, “Further membranolide diterpenes from the antarctic sponge dendrilla membranosa” (2004)

What was measured:
Assay type in all cases: functional
Conditions in all cases: read-out: IZ
Staphylococcus aureus = assay: Antibiotic activity against Staphylococcus aureus at 200 ug/disk after 24 hrs by disk diffusion method
Candida albicans = assay: Antifungal activity against Candida albicans at 200 ug/disk after 24 hrs by disk diffusion method
Escherichia coli = assay: Antibiotic activity against Escherichia coli at 200 ug/disk after 24 hrs by disk diffusion method

| SMILES | zone of inhibition at 200 µg/disc (Staphylococcus aureus) | zone of inhibition at 200 µg/disc (Candida albicans) | zone of inhibition at 200 µg/disc (Escherichia coli) |
| --- | --- | --- | --- |
| CO[C@H]1O[C@@H](OC)c2c1ccc([C@@]1(C)CCCC(C)(C)C1)c2[C@@H](C)C(=O)O [MEMBRANOLIDE D] | 7 mm | 9 mm | 6 mm |
| CO[C@@H]1O[C@@H](OC)c2c1ccc([C@@]1(C)CCCC(C)(C)C1)c2[C@@H](C)C(=O)O [MEMBRANOLIDE C] | 0 mm | 4 mm | 8 mm |
